# Assay results from patent US20080090900A1, “ANTIBIOTIC BUSHRIN” (University of Karachi, priority 2006, published 2008).
# “Also recorded” adds a separate entry of the source. Read-outs that look alike come from different tables or passages of the source.
# How the values were obtained:
# [1] = system: Clostridium perfringens; assay: microbe, parasite or virus in culture; type: cell-based
# [2] = system: Vibrio harveyi; assay: disc diffusion technique; type: cell-based; settings: 150 μg disc, read-out: Sensitivity (width of inhibition zone)
# [3] = system: MSSA methicillin sensitive staphylococcus aureus; assay: disc diffusion technique; type: cell-based
# [4] = system: Serratia marcescens; type: cell-based
# [5] = system: Bacillus cereus; assay: disc diffusion technique; type: cell-based; settings: 150 μg disc, read-out: Sensitivity (width of inhibition zone)
# [6] = system: MSSA methicillin sensitive staphylococcus aureus; type: cell-based
# [7] = system: Enterobacter faecalis; assay: disc diffusion technique; type: cell-based
# [8] = system: Vibrio cholera; assay: disc diffusion technique; type: cell-based
# [9] = system: Bacillus subtilis; assay: disc diffusion technique; type: cell-based
# [10] = system: Streptococcus group G; assay: disc diffusion technique; type: cell-based; settings: 150 μg disc
# [11] = system: Proteus mirabilis; type: cell-based
# [12] = system: Enterococcus faecium; assay: disc diffusion technique; type: cell-based; settings: 150 μg disc, read-out: Sensitivity (width of inhibition zone)
# [13] = system: Enterococcus faecalis; assay: disc diffusion technique; type: cell-based; settings: 150 μg disc, read-out: Sensitivity (width of inhibition zone)
# [14] = system: Bacillus subtilis; assay: Complete killing of Bacillus subtilis; type: cell-based
# [15] = system: Enterococcus faecalis; type: cell-based
# [16] = system: Bacillus subtilis; assay: Phase contrast microscopy; type: cell-based; settings: 50 μl/ml, immediately after treatment
# Method: (§1) An exponential phase culture (A600, 0.05) of Bacillus subtilis and Staphylococcus aureus grown in Luria broth was treated with 50 μl/ml of Compound 1 for Bacillus subtilis and 60 μl/ml for Staphylococcus aureus and slides were immediately made in 1% agarose using 4 μl of Compound 1 treated cultures, time lapse images were obtained under phase contrast microscope, particular care was taken to minimize the sample exposure to UV light, image grabbing were performed essentially as described by Edwards and Errrington. (Edwards, D. H., and Errington, J.(1997). The Bacillus subtilis […] protein targets to the division septum and control the site specificity of cell division. Mol Microbiol 24:905-915).
# [17] = system: Staphylococcus aureus; assay: Phase contrast microscopy; type: cell-based; settings: 60 μl/ml, immediately after treatment
# Method: as §1
# [18] = system: Staphylococcus aureus; type: cell-based
# [19] = system: Enterococcus faecium; type: cell-based
# [20] = system: Candida albicans; type: cell-based; settings: MIC determination
# [21] = system: Vibrio cholera; type: cell-based; settings: Vibrio cholerae
# [22] = system: Staphylococcus aureus; assay: Spheroplasting activities; type: cell-based; settings: for formation of osmotically fragile spheroplasts: Luria broth with 0.3M sucrose, 90 minutes, phase contrast microscope
# Method: Aliquots (100 μl) of an exponential phase culture(A600,0.05) grown in Luria broth supplemented with 0.3M concentration of sucrose were dispensed into test tubes containing different concentration of Compound 1 and 1 μl/ml ampicillin as positive control. The tubes were then incubated at 30° C. with shaking at 140 rpm. After 90 minutes, the cells were examined by phase contrast microscope for any morphological changes or for the presence of spheroplast. To confirm the osmotic fragility of the spheroplast the lytic effect of 2-3 μl of water added under the cover slip was tested.
# [23] = system: Bacillus steriothermophilus; assay: disc diffusion technique; type: cell-based; settings: 150 μg disc, read-out: Sensitivity (width of inhibition zone)
# [24] = system: Bacillus subtilis; type: cell-based
# [25] = system: Escherichia coli; assay: disc diffusion technique; type: cell-based; settings: 150 μg disc, read-out: Sensitivity (width of inhibition zone)
# [26] = system: Klebsiella aerogenes; assay: disc diffusion technique; type: cell-based; settings: 150 μg disc
# [27] = system: Hafnia alvei; assay: disc diffusion technique; type: cell-based
# [28] = system: Proteus morgani; type: cell-based
# [29] = system: Proteus mirabilis; assay: disc diffusion technique; type: cell-based
# [30] = system: Hafnia alvei; type: cell-based
# [31] = system: Staphylococcus aureus; assay: Bacteriolytic assay; type: cell-based; settings: 600 nm, 30° C., 0-360 min, various concentrations
# Method: The seed culture of Staphylococcus aureus in Luria broth (LB) were washed twice with sterile distilled water containing 0.9% sodium chloride and the absorbance was adjusted to 0.05 at 600 nm. The bacterial cell suspension was divided into aliquots of 5 ml each placed in sterile test tube and exposed to Compound 1 at various concentration, untreated bacterial suspension were used as the negative control.
# [32] = system: Vibrio harveyi; type: cell-based
# [33] = system: Candida albicans; assay: disc diffusion technique; type: cell-based
# [34] = system: Staphylococcus epidermidis; assay: disc diffusion technique; type: cell-based
# [35] = system: Proteus morgani; assay: disc diffusion technique; type: cell-based; settings: 150 μg disc, read-out: Sensitivity (width of inhibition zone)
# [36] = system: Salmonella typhi; assay: disc diffusion technique; type: cell-based
# [37] = system: Escherichia coli; type: cell-based
# [38] = system: Bacillus steriothermophilus; type: cell-based
# [39] = system: Enterobacter faecalis; type: cell-based
# [40] = system: Gram-positive bacteria; type: cell-based
# Method: (§2) The minimum inhibitory concentration (MIC) of Compound 1 was determined by the standard microdilution method described in the national committee for clinical laboratory standards (National Committee for Clinical Laboratory Standards, 1997. Method for dilution antimicrobial susceptibility test for bacteria, that grow aerobically, 4th ed., p, 1-29. National Committee for Clinical Laboratory Standards) using Muller Hinton broth medium (Oxoid) incubated at 37° C. for 24 h. […] This substance was slightly active against Streptococcus sp for which the MIC was 200 μg/ml.
# [41] = system: Gram negative bacteria; type: cell-based
# Method: as §2
# [42] = system: Shewanella putrifacians; type: cell-based
# [43] = Heat stability test (antibacterial activity by disk diffusion after heating); type: physicochemical
# Method: […] After the treatment, the liquid in each tube was evaporated completely and Compound 1 was re-dissolved in methanol to give an appropriate concentration. Then antibacterial activity was evaluated in triplicate by the disk diffusion method.
# [44] = system: Shewanella putrifacians; assay: disc diffusion technique; type: cell-based; settings: 150 μg disc, read-out: Sensitivity (width of inhibition zone)
# [45] = system: Serratia marcescens; assay: disc diffusion technique; type: cell-based
# [46] = system: Salmonella typhi; type: cell-based; settings: Salmonella enterica
# [47] = system: Staphylococcus epidermidis; type: cell-based
# [48] = system: Clostridium sporogenes; assay: microbe, parasite or virus in culture; type: cell-based
# [49] = system: Bacillus cereus; type: cell-based
# [50] = system: Streptococcus sp; type: cell-based
# [51] = system: Staphylococcus aureus (ATCC33591); assay: Time kill experiment; settings: for course of viable bacterial cell count: at two and four times the MIC
# [52] = system: Clostridium perfringens; type: cell-based
# [53] = system: Clostridium sporogenes; assay: microbe, parasite or virus in culture; type: cell-based; settings: Clostridium sporogenes, read-out: Sensitivity (width of inhibition zone)
# [54] = 150 μg disc, read-out: Sensitivity (width of inhibition zone)
smiles,measurement,setting,value
"Cc1cc(O)c2c(c1)C=CC(C)(c1ccoc1)C2 (centres unmarked) [Compound 1, 7-(3-furyl)-3,7-dimethyl-7,8-dihydro-1-naphthalenol]",zone of inhibition at 150 µg/disc,"[1]; Clostridium perfringens, read-out: Sensitivity (width of inhibition zone)",10 to 15 mm
same,antibacterial activity,"[1]; disc diffusion, anaerobic Clostridium perfringens",less active
same,zone of inhibition at 150 µg/disc,[2],18 to 30 mm
same,antibacterial activity,[3]; Staphylococcus aureus MSSA,active; also recorded: activity
same,zone of inhibition at 150 µg/disc,"[3]; Staphylococcus aureus, 150 μg disc, MSSA, read-out: Sensitivity (width of inhibition zone)",18 to 30 mm
same,MIC,[4],60 µg/mL
same,MIC,"[4]; Serratia marcescens, read-out: MIC",60 µg/mL
same,zone of inhibition at 150 µg/disc,[5],18 to 30 mm
same,MIC,[6],60 µg/mL
same,antibacterial activity,[7],active; also recorded: activity
same,antibacterial activity,[8],active; also recorded: activity
same,antibacterial activity,[9],active; also recorded: activity
same,zone of inhibition at 150 µg/disc,[9]; [54],18 to 30 mm
same,Sensitivity (width of inhibition zone),[10],−
same,MIC,[11],75 µg/mL
same,MIC,"[11]; Proteus mirabilis, read-out: MIC",75 µg/mL
same,zone of inhibition at 150 µg/disc,[12],18 to 30 mm
same,zone of inhibition at 150 µg/disc,[13],18 to 30 mm
same,concentration that completely killed,[14],100 µg/mL
same,MIC,[15],50 µg/mL
same,morphological change of treated cells (time lapse images),[16],uniform and consistent decrease in size of cells
same,morphological change of treated cells (time lapse images),[17],complete lyses
same,MIC,[18]; Staphylococcus aureus,50 to 100 µg/mL
same,MIC,"[18]; Staphylococcus aureus (ATCC33591), stated in time kill experiment, read-out: MIC",50 µg/mL
same,MIC,[19],50 µg/mL
same,activity against Candida albicans,[20],not found active
same,MIC,[21],60 µg/mL
same,formation of osmotically fragile spheroplasts,[22],did not induce
same,killing of cells in osmotically protected medium,[22]; Staphylococcus aureus,killed
same,zone of inhibition at 150 µg/disc,[23],18 to 30 mm
same,MIC,[24],50 to 60 µg/mL
same,MIC,"[24]; Bacillus subtilis, read-out: MIC",50 µg/mL
same,zone of inhibition at 150 µg/disc,[25],10 to 15 mm
same,Sensitivity (width of inhibition zone),[26],−
same,antibacterial activity,[27],active; also recorded: activity
same,zone of inhibition at 150 µg/disc,[27]; [54],15 to 20 mm
same,MIC,[28],75 µg/mL
same,antibacterial activity,[29],active; also recorded: activity
same,zone of inhibition at 150 µg/disc,[29]; [54],18 to 30 mm
same,MIC,[30],100 µg/mL
same,MIC,"[30]; Hafnia alvei, read-out: MIC",100 µg/mL
same,absorbance of Staphylococcus aureus cell suspension (lysis),[31],Reduction of the absorbance
same,MIC,[32],75 µg/mL
same,activity,[33],not active
same,Sensitivity (width of inhibition zone),[33]; 150 μg disc,−
same,zone of inhibition at 150 µg/disc,"[34]; 150 μg disc, Staphylococcus epidermidis, read-out: Sensitivity (width of inhibition zone)",18 to 30 mm
same,antibacterial activity,[34]; Staphylococcus epidermids,active; also recorded: activity
same,zone of inhibition at 150 µg/disc,[35],18 to 30 mm
same,zone of inhibition at 150 µg/disc,"[36]; Salmonella enterica, TYPHI, read-out: Sensitivity (width of inhibition zone)",15 to 20 mm
same,antibacterial activity,"[36]; disc diffusion, Salmonella typhi",active; also recorded: activity
same,MIC,[37],75 µg/mL
same,MIC,[38],50 to 60 µg/mL
same,MIC,"[38]; Bacillus steriothermophilus, read-out: MIC",50 µg/mL
same,MIC,[39],100 µg/mL
same,MIC,[40],50 to 75 µg/mL
same,MIC,[41],75 to 125 µg/mL
same,MIC,[42],75 µg/mL
same,antibacterial activity after heat treatment,[43]; at 200° C.,completely lost
same,antibacterial activity after heat treatment,[43]; treatment at 120° C.,significantly reduced
same,zone of inhibition at 150 µg/disc,[44],10 to 15 mm
same,zone of inhibition at 150 µg/disc,"[45]; 150 μg disc, Serratia marcescens, read-out: Sensitivity (width of inhibition zone)",15 to 20 mm
same,antibacterial activity,[45]; Serratia marcesens,active; also recorded: activity
same,MIC,[46],75 µg/mL
same,MIC,[47],50 to 100 µg/mL
same,MIC,"[47]; Staphylococcus epidermidis, read-out: MIC",50 µg/mL
same,MIC,[48],125 µg/mL
same,MIC,[49],60 µg/mL
same,MIC,[50],200 µg/mL
same,concentration able to kill completely,[51]; Staphylococcus aureus,125 µg/mL
same,exposure time after which number of viable bacterial cells decreased,[51]; at MIC 50 μg/ml,8 h
same,course of viable bacterial cell count,[51],decreased drastically
same,time after which viable count decreased drastically,[51]; four times the MIC,1 h
same,killing rate compared with test antibiotics,"[51]; same concentration and length of exposure, vs vancomycin, nisin, tetracycline, ampicillin",much higher
same,bactericidal activity,"[51]; time kill, Staphylococcus aureus",rapidly bactericidal
same,time after which viable count decreased drastically,[51]; two times the MIC,2 h
same,MIC,[52],100 µg/mL
same,zone of inhibition at 150 µg/disc,[53],10 to 15 mm
"CC1(C)S[C@@H]2[C@H](NC(=O)[C@H](N)c3ccccc3)C(=O)N2[C@H]1C(=O)O [ampicillin, reference compound]",formation of osmotically fragile spheroplasts,[22],observed
same,course of viable bacterial cell count,[51],decreased gradually
"CN[C@H](CC(C)C)C(=O)N[C@H]1C(=O)N[C@@H](CC(N)=O)C(=O)N[C@H]2C(=O)N[C@H]3C(=O)N[C@H](C(=O)N[C@H](C(=O)O)c4cc(O)cc(O)c4-c4cc3ccc4O)[C@H](O)c3ccc(c(Cl)c3)Oc3cc2cc(c3O[C@@H]2O[C@H](CO)[C@@H](O)[C@H](O)[C@H]2O[C@H]2C[C@](C)(N)[C@H](O)[C@H](C)O2)Oc2ccc(cc2Cl)[C@H]1O [vancomycin, reference compound]",course of viable bacterial cell count,[51],decreased gradually
